Measured values from patent US20250326732A1 (Pretzel Therapeutics, Inc., priority 2021, published 2025).

target: POLRMT (Homo sapiens (Human), UniProt O00411); test: homogeneous TR-FRET assay of mitochondrial transcription (inhibition of POLRMT); format: biochemical; settings: 7.5 nM POLRMT, 15 nM TFB2M, 30 nM TFAM, 0.5 nM DNA template, 500 μM NTPs, 37° C. for 60 minutes
How it was run: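 POLRMT transcription from linearized pUC-LSP DNA template; RNA product detected by hybridization of ATTO647 acceptor (1 nM) and biotinylated donor (3 nM) probes plus Europium-streptavidin. Reaction stopped with EDTA/700 mM NaCl buffer, pH 7.5.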

Sequence of POLRMT (O00411 42-1230): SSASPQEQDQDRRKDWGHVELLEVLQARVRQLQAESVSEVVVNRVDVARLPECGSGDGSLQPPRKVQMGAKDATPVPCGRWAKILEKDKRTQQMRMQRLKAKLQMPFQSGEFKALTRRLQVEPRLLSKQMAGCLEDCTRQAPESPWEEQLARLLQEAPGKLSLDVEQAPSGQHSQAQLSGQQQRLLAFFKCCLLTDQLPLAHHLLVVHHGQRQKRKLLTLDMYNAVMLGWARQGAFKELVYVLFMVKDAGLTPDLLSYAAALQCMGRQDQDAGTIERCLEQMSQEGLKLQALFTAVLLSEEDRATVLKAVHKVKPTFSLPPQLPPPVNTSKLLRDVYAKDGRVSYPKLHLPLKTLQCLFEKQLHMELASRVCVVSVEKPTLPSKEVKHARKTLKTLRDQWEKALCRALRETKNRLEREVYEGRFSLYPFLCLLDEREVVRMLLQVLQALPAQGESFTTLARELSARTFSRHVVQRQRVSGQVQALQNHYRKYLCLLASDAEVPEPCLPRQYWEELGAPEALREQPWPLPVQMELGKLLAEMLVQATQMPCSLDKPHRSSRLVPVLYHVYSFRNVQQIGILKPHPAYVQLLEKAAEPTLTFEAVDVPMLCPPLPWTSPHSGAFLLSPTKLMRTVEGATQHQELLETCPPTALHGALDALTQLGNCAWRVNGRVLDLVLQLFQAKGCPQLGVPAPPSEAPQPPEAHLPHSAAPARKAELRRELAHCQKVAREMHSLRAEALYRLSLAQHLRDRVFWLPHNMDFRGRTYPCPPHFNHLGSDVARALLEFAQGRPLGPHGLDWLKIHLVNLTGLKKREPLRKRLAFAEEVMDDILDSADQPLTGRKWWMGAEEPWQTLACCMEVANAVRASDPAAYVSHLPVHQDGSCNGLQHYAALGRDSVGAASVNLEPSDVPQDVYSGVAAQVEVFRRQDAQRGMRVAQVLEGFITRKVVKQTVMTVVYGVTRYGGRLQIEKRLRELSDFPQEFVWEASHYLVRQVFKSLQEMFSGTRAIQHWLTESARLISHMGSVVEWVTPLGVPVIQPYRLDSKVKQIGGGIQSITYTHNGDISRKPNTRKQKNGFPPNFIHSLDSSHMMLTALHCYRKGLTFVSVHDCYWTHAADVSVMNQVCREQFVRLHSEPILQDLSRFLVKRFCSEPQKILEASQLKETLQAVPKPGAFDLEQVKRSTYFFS

How did the IC50 turn out when Cc1ccccc1-c1cc(=O)oc2cc(NCC(C)(C)C(=O)O)ccc12 [Example 127, 2,2-dimethyl-3-((2-oxo-4-(o-tolyl)-2H-chromen-7-yl)amino)propanoic acid] was run?
Its IC50 is 200 nM.

For Cc1ccccc1-c1cc(=O)oc2cc(N(C)CC(C)(C)C(=O)O)ccc12 [Example 128, 2,2-dimethyl-3-(methyl(2-oxo-4-(o-tolyl)-2H-chromen-7-yl)amino)propanoic acid], which IC50 is on record?
Its IC50 is 30 nM.

How did the IC50 turn out when O=C(O)CCNc1ccc2c(-c3ccc(F)cc3Cl)cc(=O)oc2c1 [Example 129, 3-((4-(2-chloro-4-fluorophenyl)-2-oxo-2H-chromen-7-yl)amino)propanoic acid] was run?
The IC50 was 7000 nM.

Which IC50 does the source give for CN(CCC(=O)O)c1ccc2c(-c3ccc(F)cc3Cl)cc(=O)oc2c1 [Example 130, 3-((4-(2-chloro-4-fluorophenyl)-2-oxo-2H-chromen-7-yl)(methyl)amino)propanoic acid] here?
The IC50 was 400 nM.

How did the IC50 turn out when O=C(O)CCNc1ccc2c(-c3ccccc3Cl)cc(=O)oc2c1 [Example 131, 3-((4-(2-chlorophenyl)-2-oxo-2H-chromen-7-yl)amino)propanoic acid] was run?
The IC50 was 8000 nM.

How did the IC50 turn out when CN(CCC(=O)O)c1ccc2c(-c3ccccc3Cl)cc(=O)oc2c1 [Example 132, 3-((4-(2-chlorophenyl)-2-oxo-2H-chromen-7-yl)(methyl)amino)propanoic acid] was run?
Its IC50 is 1000 nM.

Which IC50 does the source give for Cc1ccccc1-c1cc(=O)oc2cc(N(C)CCC(N)=O)ccc12 [Example 133, 3-(methyl(2-oxo-4-(o-tolyl)-2H-chromen-7-yl)amino)propanamide] here?
Its IC50 is 700 nM.

With Cc1ccccc1-c1cc(=O)oc2cc(N(C)CC(=O)NCC(N)=O)ccc12 [Example 134, N-(2-amino-2-oxoethyl)-2-(methyl(2-oxo-4-(o-tolyl)-2H-chromen-7-yl)amino)acetamide] as the molecule, how does the IC50 read?
Its IC50 is 200 nM.

How did the IC50 turn out when CNC(=O)C1CC1c1ccc2c(-c3ccccc3C)cc(=O)oc2c1 (stereo not drawn) [Example 135, chiral-N-methyl-2-(2-oxo-4-(o-tolyl)-2H-chromen-7-yl)cyclopropane-1-carboxamide] was run?
Its IC50 is 9000 nM.

Which IC50 does the source give for CNC(=O)C1CC1c1ccc2c(-c3ccccc3C)cc(=O)oc2c1 (stereo not drawn) [Example 136, chiral-N-methyl-2-(2-oxo-4-(o-tolyl)-2H-chromen-7-yl)cyclopropane-1-carboxamide] here?
The IC50 was 200 nM.

How did the IC50 turn out when CN(CCC(N)=O)c1ccc2c(-c3ccc(F)cc3Cl)cc(=O)oc2c1 [Example 137, 3-((4-(2-chloro-4-fluorophenyl)-2-oxo-2H-chromen-7-yl)(methyl)amino)propanamide] was run?
Its IC50 is 900 nM.

CNC(=O)CCN(C)c1ccc2c(-c3ccc(F)cc3Cl)cc(=O)oc2c1 [Example 138, 3-((4-(2-chloro-4-fluorophenyl)-2-oxo-2H-chromen-7-yl)(methyl)amino)-N-methylpropanamide] was tested. Which IC50 did it give?
The IC50 was 2000 nM.

For Cc1ccccc1-c1cc(=O)oc2cc(N(C)CC(=O)NC3CCOCC3)ccc12 [Example 139, 2-(methyl(2-oxo-4-(o-tolyl)-2H-chromen-7-yl)amino)-N-(tetrahydro-2H-pyran-4-yl)acetamide], which IC50 is on record?
The IC50 was 100 nM.

With CNC(=O)CCN(C)c1ccc2c(-c3ccccc3C)cc(=O)oc2c1 [Example 140, N-methyl-3-(methyl(2-oxo-4-(o-tolyl)-2H-chromen-7-yl)amino)propanamide] as the molecule, how does the IC50 read?
The IC50 was 900 nM.

Cc1ccccc1-c1cc(=O)oc2cc(N(C)CC(=O)OC(C)C)ccc12 [Example 141, isopropyl N-methyl-N-(2-oxo-4-(o-tolyl)-2H-chromen-7-yl)glycinate] was tested. Which IC50 did it give?
The IC50 was 20 nM.

Which IC50 does the source give for CCOC(=O)CN(C)c1ccc2c(-c3ccccc3C)cc(=O)oc2c1 [Example 142, ethyl N-methyl-N-(2-oxo-4-(o-tolyl)-2H-chromen-7-yl)glycinate] here?
The IC50 was 20 nM.

For COC(=O)CN(C)c1ccc2c(-c3ccccc3C)cc(=O)oc2c1 [Example 143, methyl N-methyl-N-(2-oxo-4-(o-tolyl)-2H-chromen-7-yl)glycinate], which IC50 is on record?
Its IC50 is 30 nM.

For Cc1ccccc1-c1cc(=O)oc2cc(N(C)CCC(=O)O)ccc12 [Example 144, 3-(methyl(2-oxo-4-(o-tolyl)-2H-chromen-7-yl)amino)propanoic acid], which IC50 is on record?
The IC50 was 100 nM.

Which IC50 does the source give for Cc1ccccc1-c1cc(=O)oc2cc(NCCC(=O)O)ccc12 [Example 145, 3-((2-oxo-4-(o-tolyl)-2H-chromen-7-yl)amino)propanoic acid] here?
The IC50 was 4000 nM.

Which IC50 does the source give for Cc1ccccc1-c1cc(=O)oc2cc(CN(C)C(=O)N3CCC[C@H](C(=O)O)C3)ccc12 [Example 146, (S)-1-(methyl((2-oxo-4-(o-tolyl)-2H-chromen-7-yl)methyl)carbamoyl)piperidine-3-carboxylic acid] here?
The IC50 was 300 nM.

Which IC50 does the source give for Cc1ccccc1-c1cc(=O)oc2cc(CN(C)C(=O)N3CCC(C(=O)O)CC3)ccc12 [Example 147, 1-(methyl((2-oxo-4-(o-tolyl)-2H-chromen-7-yl)methyl)carbamoyl)piperidine-4-carboxylic acid] here?
Its IC50 is 300 nM.

Which IC50 does the source give for Cc1ccccc1-c1cc(=O)oc2cc(N[C@H](C)CC(=O)O)ccc12 [Example 148, (R)-3-((2-oxo-4-(o-tolyl)-2H-chromen-7-yl)amino)butanoic acid] here?
The IC50 was 2000 nM.

For Cc1ccccc1-c1cc(=O)oc2cc(N[C@@H](C)CC(=O)O)ccc12 [Example 149, (S)-3-((2-oxo-4-(o-tolyl)-2H-chromen-7-yl)amino)butanoic acid], which IC50 is on record?
Its IC50 is 1000 nM.

Cc1ccccc1-c1cc(=O)oc2cc(CNC(=O)N3CCC[C@H](C(=O)O)C3)ccc12 [Example 150, (S)-1-(((2-oxo-4-(o-tolyl)-2H-chromen-7-yl)methyl)carbamoyl)piperidine-3-carboxylic acid] was tested. Which IC50 did it give?
Its IC50 is 2000 nM.

How did the IC50 turn out when Cc1ccccc1-c1cc(=O)oc2cc(CNC(=O)N3CCC(C(=O)O)CC3)ccc12 [Example 151, 1-(((2-oxo-4-(o-tolyl)-2H-chromen-7-yl)methyl)carbamoyl)piperidine-4-carboxylic acid] was run?
Its IC50 is 3000 nM.

How did the IC50 turn out when Cc1ccccc1-c1cc(=O)oc2cc(CNC(=O)C3CCC(C(=O)O)CC3)ccc12 [Example 152, (1R,4R)-4-(((2-oxo-4-(o-tolyl)-2H-chromen-7-yl)methyl)carbamoyl)cyclohexane-1-carboxylic acid] was run?
The IC50 was 300 nM.

Cc1ccccc1-c1cc(=O)oc2cc(CNC(=O)C3CCC(C(=O)O)CC3)ccc12 (stereo not shown) [Example 153, 4-(((2-oxo-4-(o-tolyl)-2H-chromen-7-yl)methyl)carbamoyl)cyclohexane-1-carboxylic acid] was tested. Which IC50 did it give?
The IC50 was 200 nM.

With Cc1ccccc1-c1cc(=O)oc2cc(N(C)CC(C)C(=O)O)ccc12 (stereo not shown) [Example 155-2] as the molecule, how does the IC50 read?
Its IC50 is 400 nM.

Which IC50 does the source give for Cc1ccccc1-c1cc(=O)oc2cc(CN(C)C(=O)C3CCC(C(=O)O)CC3)ccc12 [Example 156, (1R,4R)-4-(methyl((2-oxo-4-(o-tolyl)-2H-chromen-7-yl)methyl)carbamoyl)cyclohexane-1-carboxylic acid] here?
Its IC50 is 200 nM.

Which IC50 does the source give for Cc1ccccc1-c1cc(=O)oc2cc(CNC(=O)C3CCC(C(=O)O)CC3)ccc12 [Example 157, (1S,4S)-4-(((2-oxo-4-(o-tolyl)-2H-chromen-7-yl)methyl)carbamoyl)cyclohexane-1-carboxylic acid] here?
The IC50 was 2000 nM.

How did the IC50 turn out when Cc1ccccc1-c1cc(=O)oc2cc(CN(C)C(=O)C3CCC(C(=O)O)CC3)ccc12 [Example 158, (1S,4S)-4-(methyl((2-oxo-4-(o-tolyl)-2H-chromen-7-yl)methyl)carbamoyl)cyclohexane-1-carboxylic acid] was run?
The IC50 was 800 nM.

How did the IC50 turn out when CCOC(=O)[C@H]1CCCN(C(=O)[C@@H](C)Oc2cc(C)cc3oc(=O)cc(-c4ccc(F)cc4)c23)C1 [Example 159, ethyl (S)-1-((R)-2-((4-(4-fluorophenyl)-7-methyl-2-oxo-2H-chromen-5-yl)oxy)propanoyl)piperidine-3-carboxylate] was run?
Its IC50 is greater than 100000 nM.

With Cc1cc(O[C@H](C)C(=O)N2CCC[C@H](C(=O)O)C2)c2c(-c3ccc(F)cc3)cc(=O)oc2c1 [Example 160, (S)-1-((R)-2-((4-(4-fluorophenyl)-7-methyl-2-oxo-2H-chromen-5-yl)oxy)propanoyl)piperidine-3-carboxylic acid] as the molecule, how does the IC50 read?
The IC50 was greater than 100000 nM.

How did the IC50 turn out when Cc1cc(O[C@H](C)C(=O)N2CCCCC2)c2c(-c3ccc(F)cc3)cc(=O)oc2c1 [Example 161, (R)-4-(4-fluorophenyl)-7-methyl-5-((1-oxo-1-(piperidin-1-yl)propan-2-yl)oxy)-2H-chromen-2-one] was run?
Its IC50 is greater than 100000 nM.

For Cc1cc(O[C@H](C)C(=O)N(C)C)c2c(-c3ccc(F)cc3)cc(=O)oc2c1 [Example 162, (R)-2-((4-(4-fluorophenyl)-7-methyl-2-oxo-2H-chromen-5-yl)oxy)-N,N-dimethylpropanamide], which IC50 is on record?
The IC50 was greater than 100000 nM.

How did the IC50 turn out when COCc1cc(C)c2c(-c3ccccc3C)cc(=O)oc2c1 [Example 163, 7-(methoxymethyl)-5-methyl-4-(o-tolyl)-2H-chromen-2-one] was run?
Its IC50 is 500 nM.

For Cc1ccccc1-c1cc(=O)oc2cc(NCc3ccccn3)ccc12 [Example 164, 7-((pyridin-2-ylmethyl)amino)-4-(o-tolyl)-2H-chromen-2-one], which IC50 is on record?
Its IC50 is 4000 nM.

With Cc1ccccc1-c1cc(=O)oc2cc(NCc3nccs3)ccc12 [Example 165, 7-((thiazol-2-ylmethyl)amino)-4-(o-tolyl)-2H-chromen-2-one] as the molecule, how does the IC50 read?
Its IC50 is 3000 nM.

For Cc1ccccc1-c1cc(=O)oc2cc(NCc3ncco3)ccc12 [Example 166, 7-((oxazol-2-ylmethyl)amino)-4-(o-tolyl)-2H-chromen-2-one], which IC50 is on record?
The IC50 was 5000 nM.

Which IC50 does the source give for Cc1ccccc1-c1cc(=O)oc2cc(N(C)Cc3nccs3)ccc12 [Example 167, 7-(methyl(thiazol-2-ylmethyl)amino)-4-(o-tolyl)-2H-chromen-2-one] here?
The IC50 was 100 nM.

For Cc1ccccc1-c1cc(=O)oc2cc(N(C)Cc3ccccn3)ccc12 [Example 168, 7-(methyl(pyridin-2-ylmethyl)amino)-4-(o-tolyl)-2H-chromen-2-one], which IC50 is on record?
Its IC50 is 90 nM.

How did the IC50 turn out when Cc1ccccc1-c1cc(=O)oc2cc(NCc3ccn[nH]3)ccc12 [Example 169, 7-(((1H-pyrazol-5-yl)methyl)amino)-4-(o-tolyl)-2H-chromen-2-one] was run?
The IC50 was 3000 nM.

How did the IC50 turn out when Cc1ccccc1-c1cc(=O)oc2cc(C(=O)N3CCCC(N(C)C)C3)ccc12 (stereo not shown) [Example 170, 7-(3-(dimethylamino)piperidine-1-carbonyl)-4-(o-tolyl)-2H-chromen-2-one] was run?
Its IC50 is greater than 100000 nM.
